From paper PMC12763877 (Journal of Experimental & Clinical Cancer Research : CR, 2025)

How the values were obtained:
zebrafish embryos = assay: Zebrafish embryo toxicity; type: in vivo, zebrafish (Danio rerio); conditions: embryos exposed 12 to 48 hpf, survival
Protocol: Transgenic zebrafish Tg(flk: EGFP) were obtained from the China Zebrafish Resource Center and maintained at 28 ± 1 °C under a 14-hour light/10-hour dark cycle. […] Survival rates were recorded to calculate the median lethal concentration (LC₅₀). For the retinal angiogenesis assay, embryos at 1 day post fertilization (dpf) were transferred to E3 medium containing 5 mM CoCl₂·6 H₂O and 2.5 µg/mL GS4012 to induce hypoxia and abnormal vessel formation. At 3 dpf, test compounds were added and incubation continued until 5 dpf. Blank, model, and vehicle (≤ 0.1% DMSO) controls were included, with at least three replicates per group (n = 10–15 embryos). At 5 dpf, retinal vasculature was imaged using fluorescence microscopy and analyzed for branching number, vessel length, and density using ImageJ. Data are presented as mean ± standard deviation (SD) and analyzed using one-way ANOVA followed by Tukey’s post hoc test, with p < 0.05 considered statistically significant.
The zebrafish (Danio rerio) model was employed due to its distinct advantages, the optical transparency, which enable in vivo vascular visualization. […] Firstly, the 8 candidate compounds underwent preliminary toxicity evaluation in zebrafish embryos. […] At 48 hpf, the number of surviving embryos was quantified, and the lethal dose 50 (LD50) for each compound was determined based on the survival data. […]

APLNR [1] = biological target: T1, APLNR (Homo sapiens, UniProt P35414); assay: Surface plasmon resonance (Biacore T200); conditions: APLNR on CM5 chip, 0.390625-12.5 µM, 1:1 kinetic binding model; read-out: equilibrium dissociation constant (KD)
T1 sequence (P35414 1-380): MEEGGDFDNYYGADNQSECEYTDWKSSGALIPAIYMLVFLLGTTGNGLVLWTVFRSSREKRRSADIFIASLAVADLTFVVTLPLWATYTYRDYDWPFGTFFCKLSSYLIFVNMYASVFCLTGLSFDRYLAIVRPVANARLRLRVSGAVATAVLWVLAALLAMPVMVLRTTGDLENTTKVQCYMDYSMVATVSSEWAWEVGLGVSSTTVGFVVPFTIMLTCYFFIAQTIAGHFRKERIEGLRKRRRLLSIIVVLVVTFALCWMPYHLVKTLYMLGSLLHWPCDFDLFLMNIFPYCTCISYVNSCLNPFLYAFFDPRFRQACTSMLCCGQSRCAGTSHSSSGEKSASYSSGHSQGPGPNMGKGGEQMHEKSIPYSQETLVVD
Protocol: SPR, which is a reliable method for analyzing real-time biomolecular interactions without labeling, was utilized to identify the binding affinity between APLNR and Candesartan. Candesartan is diluted with sterile phosphate-buffered saline (PBS). The APLNR protein is immobilized on a CM5 sensor chip via coupling, and then different concentrations of Candesartan (12.5 µM, 6.25 µM, 3.125 µM, 1.5625 µM, 0.78125 µM, 0.390625 µM) are injected. The Biacore T200 system can continuously and real-time monitor the changes in resonance units (RU), thereby obtaining the binding situation of candesartan with APLNR. The entire sensorgram is fitted using a 1:1 kinetic binding model, and the equilibrium dissociation constant (KD) is calculated.
To further analyze the binding capacity of candesartan to APLNR, we conducted surface plasmon resonance (SPR) analysis to determine the binding affinity between candesartan and APLNR. […] This gradual increase in RU values indicates specific binding of candesartan to APLNR.

[2] = test system: STING signaling pathway in HUVEC; assay: Western blot of STING pathway proteins; type: cell-based, human; conditions: 48 h
Protocol: Total protein was extracted using RIPA lysis buffer (Solarbio, China) supplemented with phenylmethylsulfonyl fluoride (PMSF; Thermo Fisher Scientific, USA), protease inhibitor cocktail (Roche, Switzerland), and phosphatase inhibitor cocktail (Roche, Switzerland). Protein concentration was determined using a BCA protein assay kit (Thermo Fisher Scientific, USA). Equal amounts of protein were separated by 10% SDS-polyacrylamide gel electrophoresis (SDS-PAGE) and transferred onto nitrocellulose (NC) membranes. […] All primary antibodies were purchased from Cell Signaling Technology (CST, USA), except for GAPDH, which was obtained from Proteintech (Wuhan, China). After washing, the membranes were incubated with HRP-conjugated goat anti-rabbit or anti-mouse IgG secondary antibodies (Biosharp, China) for 1 h at room temperature. Protein bands were visualized using an enhanced chemiluminescence (ECL) detection system and scanned using a chemiluminescence imaging system.

HUVEC = assay: ROS generation assay (DCFH-DA flow cytometry); type: cell-based, human; conditions: 3.75-15 µM
Protocol: Flow cytometry was performed to measure intracellular reactive oxygen species (ROS) levels using DCFH-DA (2’,7’-Dichlorodihydrofluorescein diacetate). Cells were collected and stained with DCFH-DA, followed by incubation at 37℃ for 30 min in the dark. Subsequently, the cell populations were analyzed by flow cytometry.

APLNR [3] = biological target: T1, APLNR; assay: cAMP assay in APLNR-HEK293T cells; type: cell-based; parameters: expressed in transfected cells; host or cells: HEK293; conditions: forskolin 20 µM, Apelin-13 0.1 µM, compound 10^-4-100 µM
Protocol: A suspension of APLNR-HEK293T cells was prepared and seeded into a 384-well OptiPlate™ 384 at a density of 1 × 10⁴ cells per well. The cells were cultured at 37℃ for 24 h. The culture medium was then removed, and 7.5 µL of serum-free medium containing 500 µM IBMX and the test compound was added to each well. The plate was incubated at 37℃ with 5% CO2 for 30 min. The concentration of cAMP was subsequently measured using the cAMP-Glo™ Assay Kit (Promega).
To characterize the molecular interactions between candesartan and APLNR, we performed molecular docking simulations using the APLNR crystal structure (PDB: 7SUS) as a template. […] In addition, previous studies have established that APLNR activation by its endogenous agonist Apelin-13 […] Gi protein signaling, thereby attenuating forskolin-induced cAMP accumulation. Then, using APLNR overexpression cell line (HEK293T-APLNR) and cAMP quantification assays to investigate the inhibitory activity of candesartan on APLNR.

Which “LD50(µM,48 h)” value (zebrafish embryos) does the source give for CCOc1nc2cccc(C(=O)O)c2n1Cc1ccc(-c2ccccc2-c2nnn[nH]2)cc1 [Compound A-2, Candesartan] here?
The value was 1.10 ± 0.12 µM.

And the Kd (APLNR [1])?
The Kd was 1720 nM.

And the “STING, p-TBK1/TBK1 and p-IRF3/IRF3 levels” value [2]?
Its value is “dose-dependent upregulation”.

And the ROS levels (HUVEC)?
Its ROS levels is “gradually increased with increasing drug concentration”.

What about the “cAMP accumulation (reversal of Apelin-13 effect)” value (APLNR [3]) of the same compound?
The value was “dose-dependently restored cAMP accumulation”.
